Data taken from the NIST ThermoML archive (doi:10.1021/je200637v).
Numbers after ± are expanded uncertainties.

Experiment: activity coefficient (dimensionless); of the first substance listed, at infinite dilution; xn = mol fraction of the nth substance listed
Details: Liquid, Chromatography, x1 = 0

## CCCCCCCCC [nonane] + CCCCCCCC[N+](CCCCCCCC)(CCCCCCCC)CCCCCCCC.O=S(=O)([N-]S(=O)(=O)C(F)(F)F)C(F)(F)F
322.85 K
  activity coefficient: 2.19 ± 0.1
332.65 K
  activity coefficient: 2.14 ± 0.1
343.15 K
  activity coefficient: 2.09 ± 0.09

## CCCCCCCCC [nonane] + CCCC[N+](C)(CCCC)CCCC.O=S(=O)([N-]S(=O)(=O)C(F)(F)F)C(F)(F)F
322.85 K
  activity coefficient: 16.5 ± 0.76
332.65 K
  activity coefficient: 16.1 ± 0.74
343.15 K
  activity coefficient: 15 ± 0.69

## CCCCCCCC [octane] + CCCCCCCCCC[N+](C)(C)C.O=S(=O)([N-]S(=O)(=O)C(F)(F)F)C(F)(F)F
322.85 K
  activity coefficient: 6.53 ± 0.3
332.65 K
  activity coefficient: 6.41 ± 0.29
343.15 K
  activity coefficient: 6.1 ± 0.28

## CCCCCCCC [octane] + CCCCCCCC[N+](C)(C)C.O=S(=O)([N-]S(=O)(=O)C(F)(F)F)C(F)(F)F
322.85 K
  activity coefficient: 11 ± 0.51
332.65 K
  activity coefficient: 10.3 ± 0.47
343.15 K
  activity coefficient: 9.47 ± 0.43

## CCCCCCCC [octane] + CCCCCCCC[N+](CCCCCCCC)(CCCCCCCC)CCCCCCCC.O=S(=O)([N-]S(=O)(=O)C(F)(F)F)C(F)(F)F
322.85 K
  activity coefficient: 1.73 ± 0.07
332.65 K
  activity coefficient: 1.71 ± 0.07
343.15 K
  activity coefficient: 1.69 ± 0.07

## CCCCCCCC [octane] + CCCC[N+](C)(CCCC)CCCC.O=S(=O)([N-]S(=O)(=O)C(F)(F)F)C(F)(F)F
322.85 K
  activity coefficient: 11.6 ± 0.53
332.65 K
  activity coefficient: 11.5 ± 0.53
343.15 K
  activity coefficient: 10.8 ± 0.5

## CCCC(C)=O [pentan-2-one] + CCCCCCCCCC[N+](C)(C)C.O=S(=O)([N-]S(=O)(=O)C(F)(F)F)C(F)(F)F
322.85 K
  activity coefficient: 0.44 ± 0.03
332.65 K
  activity coefficient: 0.47 ± 0.03
343.15 K
  activity coefficient: 0.47 ± 0.03

## CCCC(C)=O [pentan-2-one] + CCCCCCCC[N+](C)(C)C.O=S(=O)([N-]S(=O)(=O)C(F)(F)F)C(F)(F)F
322.85 K
  activity coefficient: 0.57 ± 0.03
332.65 K
  activity coefficient: 0.57 ± 0.03
343.15 K
  activity coefficient: 0.57 ± 0.03

## CCCC(C)=O [pentan-2-one] + CCCCCCCC[N+](CCCCCCCC)(CCCCCCCC)CCCCCCCC.O=S(=O)([N-]S(=O)(=O)C(F)(F)F)C(F)(F)F
322.85 K
  activity coefficient: 0.35 ± 0.04
332.65 K
  activity coefficient: 0.36 ± 0.04
343.15 K
  activity coefficient: 0.37 ± 0.03

## CCCC(C)=O [pentan-2-one] + CCCC[N+](C)(CCCC)CCCC.O=S(=O)([N-]S(=O)(=O)C(F)(F)F)C(F)(F)F
322.85 K
  activity coefficient: 0.55 ± 0.03
332.65 K
  activity coefficient: 0.58 ± 0.03
343.15 K
  activity coefficient: 0.59 ± 0.03

## CCC(=O)CC [pentan-3-one] + CCCCCCCCCC[N+](C)(C)C.O=S(=O)([N-]S(=O)(=O)C(F)(F)F)C(F)(F)F
322.85 K
  activity coefficient: 0.41 ± 0.03
332.65 K
  activity coefficient: 0.43 ± 0.03
343.15 K
  activity coefficient: 0.44 ± 0.03

## CCC(=O)CC [pentan-3-one] + CCCCCCCC[N+](C)(C)C.O=S(=O)([N-]S(=O)(=O)C(F)(F)F)C(F)(F)F
322.85 K
  activity coefficient: 0.52 ± 0.03
332.65 K
  activity coefficient: 0.53 ± 0.03
343.15 K
  activity coefficient: 0.54 ± 0.03

## CCC(=O)CC [pentan-3-one] + CCCCCCCC[N+](CCCCCCCC)(CCCCCCCC)CCCCCCCC.O=S(=O)([N-]S(=O)(=O)C(F)(F)F)C(F)(F)F
322.85 K
  activity coefficient: 0.32 ± 0.04
332.65 K
  activity coefficient: 0.33 ± 0.04
343.15 K
  activity coefficient: 0.35 ± 0.04

## CCC(=O)CC [pentan-3-one] + CCCC[N+](C)(CCCC)CCCC.O=S(=O)([N-]S(=O)(=O)C(F)(F)F)C(F)(F)F
322.85 K
  activity coefficient: 0.5 ± 0.03
332.65 K
  activity coefficient: 0.54 ± 0.03
343.15 K
  activity coefficient: 0.56 ± 0.03

## CCCO [propan-1-ol] + CCCCCCCCCC[N+](C)(C)C.O=S(=O)([N-]S(=O)(=O)C(F)(F)F)C(F)(F)F
322.85 K
  activity coefficient: 1.48 ± 0.06
332.65 K
  activity coefficient: 1.37 ± 0.05
343.15 K
  activity coefficient: 1.21 ± 0.04

## CCCO [propan-1-ol] + CCCCCCCC[N+](C)(C)C.O=S(=O)([N-]S(=O)(=O)C(F)(F)F)C(F)(F)F
322.85 K
  activity coefficient: 1.7 ± 0.07
332.65 K
  activity coefficient: 1.55 ± 0.06
343.15 K
  activity coefficient: 1.37 ± 0.05

## CCCO [propan-1-ol] + CCCCCCCC[N+](CCCCCCCC)(CCCCCCCC)CCCCCCCC.O=S(=O)([N-]S(=O)(=O)C(F)(F)F)C(F)(F)F
322.85 K
  activity coefficient: 1.22 ± 0.04
332.65 K
  activity coefficient: 1.14 ± 0.03
343.15 K
  activity coefficient: 1.04 ± 0.03

## CCCO [propan-1-ol] + CCCC[N+](C)(CCCC)CCCC.O=S(=O)([N-]S(=O)(=O)C(F)(F)F)C(F)(F)F
322.85 K
  activity coefficient: 1.78 ± 0.08
332.65 K
  activity coefficient: 1.64 ± 0.07
343.15 K
  activity coefficient: 1.48 ± 0.06
